Here are results for three molecules from patent US9468670B2, “Melatonin-based treatment and diagnosis of bile duct disease” (Texas A&M University System, priority 2011, dated 2016).

Series [1] deals with MT2 vs. the MT1 subtype. Particulars: Shiu et al., 2010; cited from earlier work.
Series [2] deals with large mouse cholangiocyte lines. The series is described as follows: cAMP levels (RIA) in large mouse cholangiocyte lines. In kind it is cell-based. The settings on record: preincubation with antagonist (10 mM), melatonin 10^−11 M. An excerpt: (§1) The expression of MT1 and MT2 receptors in immortalized large cholangiocytes was first evaluated by immunofluorescence (Francis et al., 2008). Images were visualized using an Olympus IX-71 confocal microscope. For all immunoreactions, negative controls (with normal serum from the same species substituted for the primary antibody) were included. It was next evaluated by commercially available radioimmunoassay (RIA) kits ([…] et al., 1998; Kato et al., 1992; […] et al., 1999; […] et al., 2004) for cAMP levels ([…] et al., 1998; Kato et al., 1992; […] Shiu et al., 2010). […] […] et al., 1992; Ramirez-Rodriguez et al., 2009; […], 1999). […] Shiu et al., 2010) before evaluating by immunoblots (Francis et al., 2008) the expression of PCNA and the phosphorylation of PKA and EKR1/2.
(cAMP levels reflect the balance of adenylyl cyclase and phosphodiesterase activity.)

Series [3] deals with T1, AANAT (Rattus norvegicus, UniProt Q64666).
T1 construct: the expression of AANAT in liver sections and cholangiocytes from the selected groups of animals; from tissue; host or cells: Male Fischer 344 rats: liver sections, total liver, isolated cholangiocytes, pineal gland, small intestine, serum
The series is described as follows: Melatonin levels in serum and cholangiocyte supernatant (ELISA) of Morpholino-treated rats. In kind it is in vivo. Particulars: normal rats. How it is done:
In separate experiments, normal rats treated with Vivo-Morpholino sequences of AANAT (5'-[…] NO:1), to reduce the biliary expression of AANAT) or Morpholino mismatched (5'-[…] NO:2)) (Gene Tools LCC) (1 mg/Kg BW/day) for 1 week via an implanted portal vein catheter. Serum, liver tissue, cholangiocytes, kidney, spleen, small intestine, stomach and heart were collected. Since our goal was to knock-down AANAT expression in the liver without inhibiting AANAT expression in other organs, we used a lower dose (1 mg/Kg/day) of Vivo-Morpholino than that described in the original study (3.0 mg/kg/day (Arora et al., 2002). This approach minimizes the amount of Vivo-Morpholino that circulates outside of the liver after slow infusion into the portal vein. See below for the surgical procedure for the implantation of the portal vein catheter by which AANAT Vivo-Morpholino or Morpholino mismatched was administered. Melatonin levels in serum and medium of primary cultures of isolated cholangiocytes were determined by ELISA kits (Genway, San Diego, Calif.). Supernatants were obtained from cholangiocytes (1×10^7 cells/ml) that were incubated for 6 hours at 37° C. (Glaser et al., 2008).
(In general: In an ELISA, binding on a coated surface is turned into a signal by an enzyme label.)

The conditions of series [4]: rat, in vivo, 1 mg/kg/day. As for the experimental part: (§2) In separate experiments, normal rats treated with Vivo-Morpholino sequences of AANAT (5′-[…] (SEQ ID NO:1), to reduce the biliary expression of AANAT) or Morpholino mismatched (5′-[…] (SEQ ID NO:2)) (Gene Tools LCC) (1 mg/Kg BW/day) for 1 week via an implanted portal vein catheter. Serum, liver tissue, cholangiocytes, kidney, spleen, small intestine, stomach and heart were collected. Since our goal was to knock-down AANAT expression in the liver without inhibiting AANAT expression in other organs, we used a lower dose (1 mg/Kg/day) of Vivo-Morpholino than that described in the original study (3.0 mg/kg/day (Arora et al., 2002). This approach minimizes the amount of Vivo-Morpholino that circulates outside of the liver after slow infusion into the portal vein. See below for the surgical procedure for the implantation of the portal vein catheter by which AANAT Vivo-Morpholino or Morpholino mismatched was administered.
(§3) Biliary proliferation was determined by measurement of the percentage of PCNA-positive cholangiocytes by immunohistochemistry, and intrahepatic bile duct mass (IBDM) by immunohistochemistry for CK-19 (Mancinelli et al., 2010). Biliary apoptosis was evaluated by semiquantitative terminal deoxynucleotidyltransferase biotin-dUTP nick-end labeling (TUNEL) kit (Chemicon International, Inc., Temecula, Calif.) (Mancinelli et al., 2010). IBDM was determined as the area occupied by CK-19 positive-bile duct/total area×100 (Mancinelli et al., 2010). The morphological changes/damage in liver, spleen, kidney, heart, stomach, and small intestine were evaluated from AANAT Vivo-Morpholino- or mismatch-treated rats by H&E staining. The serum levels of the transaminases, glutamate pyruvate transaminases (SGPT) and glutamic oxaloacetic transaminase (SGOT), alkaline phosphatase (ALP) and total bilirubin were evaluated using a Dimension RxL Max Integrated Chemistry system (Dade Behring Inc., Deerfield Ill.), Chemistry Department, Scott & White.

Series [5] relates to cholangiocytes. The series is described as follows: Biliary proliferation (PCNA, IBDM) and apoptosis (TUNEL) in Morpholino-treated rats. Particulars: normal rats, 1 mg/Kg BW/day for 1 week via portal vein catheter. In kind it is in vivo, rat. As for the experimental part:
as §2, §3

Series [6] has as its system SR, CFTR, Cl−/HCO3− AE2, VEGF-A/C. In words: Expression of PCNA, SR, CFTR, Cl−/HCO3− AE2, VEGF-A/C in liver sections, liver tissue and cholangiocytes of Morpholino-treated rats. Particulars: normal rats, 1 week. The series is classed as in vivo, rat. As for the experimental part: as §2
By real-time PCR (Francis et al., 2008), the expression of PCNA, SR, CFTR, Cl^−/HCO3^− AE2, VEGF-A/C was evaluated in total RNA from: (i) cholangiocytes from normal rats, and BDL rats treated with melatonin; and (ii) liver tissue and cholangiocytes from rats treated with mismatch or AANAT Vivo-Morpholino for 1 week. A ΔΔCT analysis was obtained using normal cholangiocytes or normal total liver as control samples (Francis et al., 2008). The primers for rat PCNA, SR, CFTR, Cl^−/HCO3^− AE2, VEGF-A/C (SABiosciences) were designed according to the NCBI GenBank Accession numbers: NM_022381 (PCNA); NM_031115 (SR); NM_017048 (Cl^−/HCO3^− AE2); XM_001059206 (CFTR); NM_031836 (VEGF-A); and NM_053653 (VEGF-C). The percentage of cholangiocytes positive for SR, CFTR, Cl^−/HCO3^− AE2 and VEGF-A/C was evaluated in liver sections: when 0%-5% of bile ducts were positive a negative score was assigned; a +/−score was assigned when 6%-10% of ducts were positive; a +score was assigned when 11%-30% of bile ducts were positive (Glaser et al., 2009).

Series [7] deals with large cholangiocyte lines. The series is described as follows: PCNA expression and PKA, ERK1/2 phosphorylation (immunoblots) in immortalized large cholangiocytes. In kind it is cell-based, mouse. The settings on record: preincubation with antagonist (10 mM), melatonin 10^−11 M, 48 hours.
Text: as §1
A general note: Immunoblotting shows a protein as a band on a membrane.

T1 sequence (Q64666 whole entry): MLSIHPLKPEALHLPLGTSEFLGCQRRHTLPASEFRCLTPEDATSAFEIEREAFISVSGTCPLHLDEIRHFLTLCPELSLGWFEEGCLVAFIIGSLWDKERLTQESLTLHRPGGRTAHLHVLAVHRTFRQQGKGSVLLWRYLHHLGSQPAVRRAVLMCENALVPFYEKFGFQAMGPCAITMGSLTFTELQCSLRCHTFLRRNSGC

Consider `CCC(=O)NC1Cc2ccccc2C(c2ccccc2)C1` (stereo not shown) [4-P-PDOT, 4-Phenyl-2-propionamidotetralin], for which, in series [1], the “Selectivity for the MT2 vs. the MT1 subtype” value is reported as above 300 fold. In series [2], the “Prevention of the melatonin-induced decrease in cAMP levels” value is recorded as “not”.
In turn, “mismatch Morpholino: Morpholino mismatched 5′-GTTCCCGACCTTTGCAACTCGTCCC (SEQ ID NO:2), control for AANAT Vivo-Morpholino (all phosphorodiamidate morpholino (PMO); further chemistry not fully specified)” displayed a Melatonin supernatant in series [3] (cholangiocyte supernatant, 6 hours at 37° C., 1 mg/Kg BW/day for 1 week) of 5.8 ± 0.6 pg/mL. Also, the Melatonin serum in series [3] (1 mg/Kg BW/day for 1 week via portal vein catheter) turned out to be 46.4 ± 10.1 pg/mL. Moreover, in series [4], the ALP is listed as 230.7 ± 9 Units/L, the SGOT was 120.5 ± 10.5 Units/L, the SGPT is 67.75 ± 4.6 Units/L and the Total bilirubin was below 0.1 mg/L. For the same molecule, in series [5], the “% IBDM” value stood at 0.30 ± 0.04%, the “% PCNA-positive cholangiocytes” value came to 8.00 ± 0.7% and the “% apoptotic cholangiocytes” value is below 5%. Moreover, in series [6], the “Immunoreactivity of cholangiocytes to Cl−HCO3− AE2” value is “+/− (a +/−score was assigned when 6%-10% of ducts were positive)”, the “Immunoreactivity of cholangiocytes to SR” value is reported as “+/− (a +/−score was assigned when 6%-10% of ducts were positive)” and the “Immunoreactivity of cholangiocytes to VEGF-A” value is given as “+/− (a +/−score was assigned when 6%-10% of ducts were positive)”.
Take `CC(=O)NCCc1c(Cc2ccccc2)[nH]c2ccccc12` [luzindole]: the “Prevention of the melatonin-induced decreases in PCNA expression and PKA, ERK2 phosphorylation” value in series [7] was “prevented”. In addition, the “Prevention of the melatonin-induced decrease in cAMP levels” value in series [2] is listed as “prevented”.
